Measured values from article PMC5847526, “Inhibition of neuronal FLT3 receptor tyrosine kinase alleviates peripheral neuropathic pain in mice” (Nature Communications, 2018).

Experiments:
PRLR-JAK2 = PRLR-JAK2 (Homo sapiens, UniProt P16471); assay: cell-based; set-up: PathHunter eXpress functional assay (DiscoverX tkMAX), inhibition of reference ligand response; conditions: read-out: % Inhibition of reference binding (Table 3)
INSRb = molecular target: T1, INSRb (Homo sapiens, UniProt P06213); assay: cell-based; set-up: PathHunter eXpress functional assay (DiscoverX tkMAX), inhibition of reference ligand response; conditions: read-out: % Inhibition of reference binding (Table 3)
T1 construct: gene INSR; isoform b

EphA7 = EphA7 (Homo sapiens, UniProt Q15375); assay: cell-based; set-up: PathHunter eXpress functional assay (DiscoverX tkMAX), inhibition of reference ligand response; conditions: read-out: % Inhibition of reference binding (Table 3)
EphB4 = EphB4 (Homo sapiens, UniProt P54760); assay: cell-based; set-up: PathHunter eXpress functional assay (DiscoverX tkMAX), inhibition of reference ligand response; conditions: read-out: % Inhibition of reference binding (Table 3)
EphB2 = EphB2 (Homo sapiens, UniProt P29323); assay: cell-based; set-up: PathHunter eXpress functional assay (DiscoverX tkMAX), inhibition of reference ligand response; conditions: read-out: % Inhibition of reference binding (Table 3)
EphB3 = EphB3 (Homo sapiens, UniProt P54753); assay: cell-based; set-up: PathHunter eXpress functional assay (DiscoverX tkMAX), inhibition of reference ligand response; conditions: read-out: % Inhibition of reference binding (Table 3)
ErbB4 = ErbB4 (Homo sapiens, UniProt Q15303); assay: cell-based; set-up: PathHunter eXpress functional assay (DiscoverX tkMAX), inhibition of reference ligand response; conditions: read-out: % Inhibition of reference binding (Table 3)
ErbB1 = molecular target: T2, ErbB1 (Homo sapiens, UniProt P00533); assay: cell-based; set-up: PathHunter eXpress functional assay (DiscoverX tkMAX), inhibition of reference ligand response; conditions: read-out: % Inhibition of reference binding (Table 3)
T2 construct: gene EGFR

FLT4 = FLT4 (Homo sapiens, UniProt P35916); assay: cell-based; set-up: PathHunter eXpress functional assay (DiscoverX tkMAX), inhibition of reference ligand response; conditions: read-out: % Inhibition of reference binding (Table 3)
KDR = KDR (Homo sapiens, UniProt P35968); assay: cell-based; set-up: PathHunter eXpress functional assay (DiscoverX tkMAX), inhibition of reference ligand response; conditions: read-out: % Inhibition of reference binding (Table 3)
EphA5 = EphA5 (Homo sapiens, UniProt P54756); assay: cell-based; set-up: PathHunter eXpress functional assay (DiscoverX tkMAX), inhibition of reference ligand response; conditions: read-out: % Inhibition of reference binding (Table 3)
PDGFRa = PDGFRa (Homo sapiens, UniProt P16234); assay: cell-based; set-up: PathHunter eXpress functional assay (DiscoverX tkMAX), inhibition of reference ligand response; conditions: read-out: % Inhibition of reference binding (Table 3)
IGF1R = IGF1R (Homo sapiens, UniProt P08069); assay: cell-based; set-up: PathHunter eXpress functional assay (DiscoverX tkMAX), inhibition of reference ligand response; conditions: read-out: % Inhibition of reference binding (Table 3)
DDR1 = DDR1 (Homo sapiens, UniProt Q08345); assay: cell-based; set-up: PathHunter eXpress functional assay (DiscoverX tkMAX), inhibition of reference ligand response; conditions: read-out: % Inhibition of reference binding (Table 3)
c-KIT = c-KIT (Homo sapiens, UniProt P10721); assay: cell-based; set-up: PathHunter eXpress functional assay (DiscoverX tkMAX), inhibition of reference ligand response; conditions: read-out: % Inhibition of reference binding (Table 3)
PDGFRb = PDGFRb (Homo sapiens, UniProt P09619); assay: cell-based; set-up: PathHunter eXpress functional assay (DiscoverX tkMAX), inhibition of reference ligand response; conditions: read-out: % Inhibition of reference binding (Table 3)
TrkA-P75 = molecular target: T3, TrkA-P75 (Homo sapiens, UniProt P04629); assay: cell-based; set-up: PathHunter eXpress functional assay (DiscoverX tkMAX), inhibition of reference ligand response; conditions: read-out: % Inhibition of reference binding (Table 3)
T3 construct: gene NTRK1

ErbB2-ErbB3 = ErbB2-ErbB3 (Homo sapiens, UniProt P04626+P21860); assay: cell-based; set-up: PathHunter eXpress functional assay (DiscoverX tkMAX), inhibition of reference ligand response; conditions: read-out: % Inhibition of reference binding (Table 3)
Akt1/PKBα = Akt1/PKBα (Homo sapiens, UniProt P31749); assay: biochemical; set-up: ExpresS Diversity kinase profile (Eurofins Cerep P10), per cent inhibition; conditions: read-out: Inhibition of reference binding (Table 4)
PAK4 = PAK4 (Homo sapiens, UniProt O96013); assay: biochemical; set-up: ExpresS Diversity kinase profile (Eurofins Cerep P10), per cent inhibition; conditions: read-out: Inhibition of reference binding (Table 4)
IRK = molecular target: T4, IRK (Homo sapiens, UniProt P06213); assay: biochemical; set-up: ExpresS Diversity kinase profile (Eurofins Cerep P10), per cent inhibition; conditions: read-out: Inhibition of reference binding (Table 4)
T4 construct: gene INSR; insulin receptor kinase

Src kinase = Src kinase (Homo sapiens, UniProt P12931); assay: biochemical; set-up: ExpresS Diversity kinase profile (Eurofins Cerep P10), per cent inhibition; conditions: read-out: Inhibition of reference binding (Table 4)
PDGFRβ = molecular target: T5, PDGFRβ (Homo sapiens, UniProt P09619); assay: biochemical; set-up: ExpresS Diversity kinase profile (Eurofins Cerep P10), per cent inhibition; conditions: read-out: Inhibition of reference binding (Table 4)
T5 construct: gene PDGFRB

PDGFRα = molecular target: T6, PDGFRα (Homo sapiens, UniProt P16234); assay: biochemical; set-up: ExpresS Diversity kinase profile (Eurofins Cerep P10), per cent inhibition; conditions: read-out: Inhibition of reference binding (Table 4)
T6 construct: gene PDGFRA

[1] = molecular target: T7, fms-like tyrosine kinase 3 receptor (FLT3) (Homo sapiens, UniProt P36888); assay: trFRET inhibition of Red-FL binding to SNAP-FLT3 on HEK293 cells; FL-induced FLT3 phosphorylation in RS4-11 cells (IC50 […]); assay type: cell-based
T7 construct: SNAP-FLT3 (Lumi4-Tb labelled) in HEK293 cells; endogenous FLT3 in RS4-11 cells

TrkB-P75 = molecular target: T8, TrkB-P75 (Homo sapiens, UniProt Q16620); assay: cell-based; set-up: PathHunter eXpress functional assay (DiscoverX tkMAX), inhibition of reference ligand response; conditions: read-out: % Inhibition of reference binding (Table 3)
T8 construct: gene NTRK2

Sequence of Src kinase (P12931 whole entry): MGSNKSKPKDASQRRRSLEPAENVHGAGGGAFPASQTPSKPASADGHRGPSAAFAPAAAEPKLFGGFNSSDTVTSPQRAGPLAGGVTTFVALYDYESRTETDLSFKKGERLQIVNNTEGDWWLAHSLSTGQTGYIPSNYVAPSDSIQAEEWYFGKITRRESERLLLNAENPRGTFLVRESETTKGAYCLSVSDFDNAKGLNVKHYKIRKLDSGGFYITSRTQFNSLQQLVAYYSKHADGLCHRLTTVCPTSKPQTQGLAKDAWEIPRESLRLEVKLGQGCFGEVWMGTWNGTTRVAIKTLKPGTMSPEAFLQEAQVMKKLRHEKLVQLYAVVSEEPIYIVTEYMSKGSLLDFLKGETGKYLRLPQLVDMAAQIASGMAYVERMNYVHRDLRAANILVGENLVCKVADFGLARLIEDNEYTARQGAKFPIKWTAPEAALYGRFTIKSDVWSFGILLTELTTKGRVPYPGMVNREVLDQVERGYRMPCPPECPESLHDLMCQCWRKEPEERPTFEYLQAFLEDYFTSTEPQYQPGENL
T7 sequence (P36888 27-993): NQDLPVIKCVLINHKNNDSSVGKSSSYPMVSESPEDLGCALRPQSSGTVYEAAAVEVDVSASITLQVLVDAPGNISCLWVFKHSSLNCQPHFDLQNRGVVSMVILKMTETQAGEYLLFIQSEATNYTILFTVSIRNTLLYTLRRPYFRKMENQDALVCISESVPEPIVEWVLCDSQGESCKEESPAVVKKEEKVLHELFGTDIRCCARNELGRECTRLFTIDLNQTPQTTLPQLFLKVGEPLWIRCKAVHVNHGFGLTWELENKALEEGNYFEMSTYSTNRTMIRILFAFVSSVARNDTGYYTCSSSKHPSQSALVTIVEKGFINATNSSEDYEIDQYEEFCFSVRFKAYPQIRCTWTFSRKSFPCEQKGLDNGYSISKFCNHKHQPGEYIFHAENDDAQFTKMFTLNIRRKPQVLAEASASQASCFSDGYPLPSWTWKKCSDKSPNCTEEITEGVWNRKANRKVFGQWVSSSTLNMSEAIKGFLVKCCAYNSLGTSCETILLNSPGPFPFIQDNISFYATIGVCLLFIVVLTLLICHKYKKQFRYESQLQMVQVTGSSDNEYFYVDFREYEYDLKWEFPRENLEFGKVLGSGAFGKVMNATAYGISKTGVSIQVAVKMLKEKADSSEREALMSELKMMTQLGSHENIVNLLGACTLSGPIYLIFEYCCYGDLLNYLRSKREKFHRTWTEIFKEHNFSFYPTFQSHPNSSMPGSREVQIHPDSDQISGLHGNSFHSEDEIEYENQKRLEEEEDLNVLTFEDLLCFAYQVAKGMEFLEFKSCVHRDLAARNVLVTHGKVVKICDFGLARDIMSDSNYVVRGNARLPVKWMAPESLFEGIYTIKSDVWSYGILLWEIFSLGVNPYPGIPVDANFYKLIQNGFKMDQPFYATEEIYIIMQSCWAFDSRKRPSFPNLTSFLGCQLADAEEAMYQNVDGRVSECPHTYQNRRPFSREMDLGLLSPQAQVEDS
Sequence of EphA5 (P54756 whole entry): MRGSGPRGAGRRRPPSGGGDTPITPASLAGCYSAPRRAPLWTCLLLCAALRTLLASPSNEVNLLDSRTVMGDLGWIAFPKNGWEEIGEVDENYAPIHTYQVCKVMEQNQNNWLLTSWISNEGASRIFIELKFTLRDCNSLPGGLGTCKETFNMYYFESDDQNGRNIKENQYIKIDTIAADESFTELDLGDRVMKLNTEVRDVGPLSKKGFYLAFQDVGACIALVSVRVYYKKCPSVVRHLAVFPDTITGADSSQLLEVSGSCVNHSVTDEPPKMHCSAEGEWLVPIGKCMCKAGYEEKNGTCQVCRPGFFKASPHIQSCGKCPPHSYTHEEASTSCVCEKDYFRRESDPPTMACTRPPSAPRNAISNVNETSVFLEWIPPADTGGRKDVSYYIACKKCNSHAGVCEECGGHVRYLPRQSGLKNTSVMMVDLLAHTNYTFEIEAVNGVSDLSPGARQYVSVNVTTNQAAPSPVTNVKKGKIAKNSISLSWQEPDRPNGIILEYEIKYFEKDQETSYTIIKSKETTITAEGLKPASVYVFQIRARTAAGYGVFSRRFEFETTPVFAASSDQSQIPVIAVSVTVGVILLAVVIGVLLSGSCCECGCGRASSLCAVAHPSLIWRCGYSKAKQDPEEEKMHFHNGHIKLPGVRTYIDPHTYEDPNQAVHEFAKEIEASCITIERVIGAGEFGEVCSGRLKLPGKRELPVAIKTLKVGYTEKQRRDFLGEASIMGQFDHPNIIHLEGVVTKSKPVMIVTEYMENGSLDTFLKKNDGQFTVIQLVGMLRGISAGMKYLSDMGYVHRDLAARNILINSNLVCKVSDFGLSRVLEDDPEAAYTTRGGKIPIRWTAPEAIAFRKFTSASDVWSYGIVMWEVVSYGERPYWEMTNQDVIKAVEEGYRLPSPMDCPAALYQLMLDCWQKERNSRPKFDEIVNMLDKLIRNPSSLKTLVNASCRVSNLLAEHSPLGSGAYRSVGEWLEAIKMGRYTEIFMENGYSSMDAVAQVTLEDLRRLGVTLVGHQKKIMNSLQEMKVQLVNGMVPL
Sequence of KDR (P35968 whole entry): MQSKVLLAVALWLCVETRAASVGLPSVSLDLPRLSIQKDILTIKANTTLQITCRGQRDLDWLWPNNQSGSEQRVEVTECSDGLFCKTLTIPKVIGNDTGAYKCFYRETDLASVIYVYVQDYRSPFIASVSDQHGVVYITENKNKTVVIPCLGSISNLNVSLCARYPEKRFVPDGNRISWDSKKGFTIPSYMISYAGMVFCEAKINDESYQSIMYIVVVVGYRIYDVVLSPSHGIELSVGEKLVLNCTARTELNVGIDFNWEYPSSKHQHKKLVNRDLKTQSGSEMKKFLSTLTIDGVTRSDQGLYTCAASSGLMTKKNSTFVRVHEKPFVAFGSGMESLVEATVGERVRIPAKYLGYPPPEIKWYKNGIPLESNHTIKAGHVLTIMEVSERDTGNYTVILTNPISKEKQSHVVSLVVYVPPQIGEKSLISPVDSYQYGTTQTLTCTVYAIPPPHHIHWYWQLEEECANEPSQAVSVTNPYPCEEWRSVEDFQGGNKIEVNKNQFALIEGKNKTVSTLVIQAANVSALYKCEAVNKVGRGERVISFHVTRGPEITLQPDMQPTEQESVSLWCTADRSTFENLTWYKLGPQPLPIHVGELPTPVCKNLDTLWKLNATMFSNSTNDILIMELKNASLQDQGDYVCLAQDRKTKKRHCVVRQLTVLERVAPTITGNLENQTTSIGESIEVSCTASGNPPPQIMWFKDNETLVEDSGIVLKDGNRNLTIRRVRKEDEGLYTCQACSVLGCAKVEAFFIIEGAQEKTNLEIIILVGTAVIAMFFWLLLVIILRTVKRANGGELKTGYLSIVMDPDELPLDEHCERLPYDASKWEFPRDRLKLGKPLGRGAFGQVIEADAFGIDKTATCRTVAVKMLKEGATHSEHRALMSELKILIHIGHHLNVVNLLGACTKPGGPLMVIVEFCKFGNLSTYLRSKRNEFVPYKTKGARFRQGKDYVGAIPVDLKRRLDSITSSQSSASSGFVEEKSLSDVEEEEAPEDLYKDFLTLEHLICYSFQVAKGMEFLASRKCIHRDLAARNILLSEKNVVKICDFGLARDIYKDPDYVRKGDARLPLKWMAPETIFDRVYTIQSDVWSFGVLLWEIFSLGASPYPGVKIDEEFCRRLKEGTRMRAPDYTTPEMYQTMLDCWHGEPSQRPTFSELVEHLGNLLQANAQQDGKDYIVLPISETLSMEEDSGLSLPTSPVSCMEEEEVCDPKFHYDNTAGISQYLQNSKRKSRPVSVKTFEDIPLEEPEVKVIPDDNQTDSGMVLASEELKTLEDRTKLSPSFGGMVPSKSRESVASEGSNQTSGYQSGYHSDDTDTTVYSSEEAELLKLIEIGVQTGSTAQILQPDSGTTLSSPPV
Sequence of EphA7 (Q15375 whole entry): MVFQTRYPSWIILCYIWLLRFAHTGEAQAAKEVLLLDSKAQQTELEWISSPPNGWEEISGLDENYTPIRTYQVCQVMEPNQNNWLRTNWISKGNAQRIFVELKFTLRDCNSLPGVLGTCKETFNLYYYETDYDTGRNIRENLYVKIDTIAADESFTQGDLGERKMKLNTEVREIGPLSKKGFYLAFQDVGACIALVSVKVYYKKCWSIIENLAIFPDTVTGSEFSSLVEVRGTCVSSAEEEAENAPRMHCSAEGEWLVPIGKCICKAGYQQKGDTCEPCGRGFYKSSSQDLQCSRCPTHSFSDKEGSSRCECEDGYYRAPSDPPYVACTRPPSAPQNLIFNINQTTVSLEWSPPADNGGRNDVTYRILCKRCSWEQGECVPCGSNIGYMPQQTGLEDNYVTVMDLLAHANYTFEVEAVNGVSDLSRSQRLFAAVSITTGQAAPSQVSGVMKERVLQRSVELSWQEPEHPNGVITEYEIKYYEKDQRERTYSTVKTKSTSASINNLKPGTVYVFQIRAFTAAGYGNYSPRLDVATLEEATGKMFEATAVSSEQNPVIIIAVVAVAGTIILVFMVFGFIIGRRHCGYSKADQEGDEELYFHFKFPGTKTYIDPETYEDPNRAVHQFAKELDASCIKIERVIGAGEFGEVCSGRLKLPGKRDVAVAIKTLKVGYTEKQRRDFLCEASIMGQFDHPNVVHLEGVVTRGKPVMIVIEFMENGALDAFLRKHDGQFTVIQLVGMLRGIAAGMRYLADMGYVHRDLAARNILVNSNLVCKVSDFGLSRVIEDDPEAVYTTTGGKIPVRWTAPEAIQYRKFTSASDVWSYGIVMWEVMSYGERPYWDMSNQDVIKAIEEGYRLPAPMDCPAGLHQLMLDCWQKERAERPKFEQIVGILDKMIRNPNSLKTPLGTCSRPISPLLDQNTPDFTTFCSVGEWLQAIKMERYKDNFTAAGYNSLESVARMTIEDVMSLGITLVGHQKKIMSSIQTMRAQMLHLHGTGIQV

In the case of `O=C(Nc1cc(Cl)ccc1O)c1cccc(S(=O)(=O)N2CCCCC2)c1` [compound 66, BDT001], the inhibition at 10 µM (PRLR-JAK2) is reported as 1.9%, the inhibition at 10 µM (INSRb) is reported as 10% and the inhibition at 10 µM (EphA7) is reported as 4.3%. The inhibition at 10 µM (EphB4) was 22.7%, the inhibition at 10 µM (EphB2) was 1.4% and the inhibition at 10 µM (EphB3) was 2.8%. For the same compound, the inhibition at 10 µM (ErbB4) was -0.1%, the inhibition at 10 µM (ErbB1) was 8.7% and the inhibition at 10 µM (FLT4) was 16.8%. The inhibition at 10 µM (KDR) was -3.1%, the inhibition at 10 µM (EphA5) was 5% and the inhibition at 10 µM (PDGFRa) was 2.2%. The inhibition at 10 µM (IGF1R) was 10.1%, the inhibition at 10 µM (DDR1) was -0.7% and the inhibition at 10 µM (c-KIT) was 7.8%. For the same compound, the inhibition at 10 µM (PDGFRb) was 4.2%, the inhibition at 10 µM (TrkA-P75) was 13.7% and the inhibition at 10 µM (ErbB2-ErbB3) was 13.6%. For the same compound, the inhibition at 10 µM (Akt1/PKBα) was -13%, the inhibition at 10 µM (PAK4) was 6% and the inhibition at 10 µM (IRK) was -4%. For the same compound, the inhibition at 10 µM (Src kinase) was -4%, the inhibition at 10 µM (PDGFRβ) was -2% and the inhibition at 10 µM (PDGFRα) was 40%. For the same compound, the IC50 [1] was 11 µM and the inhibition at 10 µM (TrkB-P75) was -1.3%.
